Where two headings read alike, the source gives them in different places.
Assays:
PI3Kβ = biological target: T1, PI3Kβ (Homo sapiens, UniProt P42338); assay: Enzyme binding assay (KINOMEscan, DiscoveRx); settings: PIK3Cβ_h, read-out: Kd PIK3Cβ_h
T1 construct: purchased DiscoveRx Corporation, San Diego (contract service, KINOMEscan)
How it was run: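 Reported Kd (nM) reflects inhibitor binding to the kinase, as measured by KINOMEscan technology.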

PI3Kδ = biological target: T2, PI3Kδ (Homo sapiens, UniProt O00329); assay: Enzyme binding assay (KINOMEscan, DiscoveRx); settings: PIK3Cδ_h
T2 construct: purchased DiscoveRx Corporation, San Diego (contract service, KINOMEscan)
T2 sequence (O00329 1-1044): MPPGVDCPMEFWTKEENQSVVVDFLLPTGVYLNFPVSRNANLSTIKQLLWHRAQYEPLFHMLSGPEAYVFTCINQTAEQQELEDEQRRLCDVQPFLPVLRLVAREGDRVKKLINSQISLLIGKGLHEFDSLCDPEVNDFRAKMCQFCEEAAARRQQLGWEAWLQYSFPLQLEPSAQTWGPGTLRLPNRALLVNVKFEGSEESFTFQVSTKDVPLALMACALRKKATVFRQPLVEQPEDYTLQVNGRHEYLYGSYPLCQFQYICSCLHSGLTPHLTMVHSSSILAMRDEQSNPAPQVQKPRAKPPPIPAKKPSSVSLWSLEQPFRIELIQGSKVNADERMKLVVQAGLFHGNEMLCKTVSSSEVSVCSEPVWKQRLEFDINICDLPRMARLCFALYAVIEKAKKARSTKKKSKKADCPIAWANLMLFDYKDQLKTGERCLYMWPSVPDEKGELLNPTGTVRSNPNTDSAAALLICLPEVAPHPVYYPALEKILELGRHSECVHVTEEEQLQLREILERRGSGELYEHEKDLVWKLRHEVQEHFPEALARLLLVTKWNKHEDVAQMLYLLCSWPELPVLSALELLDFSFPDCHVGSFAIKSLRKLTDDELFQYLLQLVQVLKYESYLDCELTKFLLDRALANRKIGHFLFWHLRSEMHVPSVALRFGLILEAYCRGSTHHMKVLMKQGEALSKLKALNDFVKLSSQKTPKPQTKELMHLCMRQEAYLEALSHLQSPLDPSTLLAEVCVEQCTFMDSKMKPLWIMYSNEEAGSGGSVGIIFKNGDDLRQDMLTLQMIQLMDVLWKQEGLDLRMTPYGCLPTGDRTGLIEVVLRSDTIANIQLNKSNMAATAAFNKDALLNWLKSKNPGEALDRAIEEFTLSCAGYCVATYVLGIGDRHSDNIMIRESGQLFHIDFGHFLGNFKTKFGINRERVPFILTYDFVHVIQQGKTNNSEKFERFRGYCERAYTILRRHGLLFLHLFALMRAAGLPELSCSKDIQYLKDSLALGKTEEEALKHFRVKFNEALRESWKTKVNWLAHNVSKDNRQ
How it was run: (§1)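 Kinase binding measured via KINOMEscan, reported as affinity.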

[1] = tested on: Akt phosphorylated at Ser473 in PC-3 cells; assay: Cellular assay: phosphorylation of Akt at Ser473 in PC-3 cells (MSD ELISA); type: cell-based; settings: PC-3 cells, 60 min compound incubation, MSD ELISA, read-out: IC50 pAkt_S473
How it was run: (§2)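 Compound treatment of PC-3 cells lasted 60 min at 37° C (0.3% DMSO). Lysates were then applied to plates carrying capture antibodies for the relevant phospho-site, and bound Akt was detected with an electrochemiluminescent anti-total Akt antibody; IC50s derive from five-point curves.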

kinase enzymes [2] = biological target: T3, kinase enzymes (Homo sapiens, UniProt P48736); assay: Enzyme binding assay (KINOMEscan, DiscoveRx), further kinases of Table A; settings: PIK3Cγ_h
T3 construct: purchased DiscoveRx Corporation, San Diego (contract service, KINOMEscan)
T3 sequence (P48736 whole entry): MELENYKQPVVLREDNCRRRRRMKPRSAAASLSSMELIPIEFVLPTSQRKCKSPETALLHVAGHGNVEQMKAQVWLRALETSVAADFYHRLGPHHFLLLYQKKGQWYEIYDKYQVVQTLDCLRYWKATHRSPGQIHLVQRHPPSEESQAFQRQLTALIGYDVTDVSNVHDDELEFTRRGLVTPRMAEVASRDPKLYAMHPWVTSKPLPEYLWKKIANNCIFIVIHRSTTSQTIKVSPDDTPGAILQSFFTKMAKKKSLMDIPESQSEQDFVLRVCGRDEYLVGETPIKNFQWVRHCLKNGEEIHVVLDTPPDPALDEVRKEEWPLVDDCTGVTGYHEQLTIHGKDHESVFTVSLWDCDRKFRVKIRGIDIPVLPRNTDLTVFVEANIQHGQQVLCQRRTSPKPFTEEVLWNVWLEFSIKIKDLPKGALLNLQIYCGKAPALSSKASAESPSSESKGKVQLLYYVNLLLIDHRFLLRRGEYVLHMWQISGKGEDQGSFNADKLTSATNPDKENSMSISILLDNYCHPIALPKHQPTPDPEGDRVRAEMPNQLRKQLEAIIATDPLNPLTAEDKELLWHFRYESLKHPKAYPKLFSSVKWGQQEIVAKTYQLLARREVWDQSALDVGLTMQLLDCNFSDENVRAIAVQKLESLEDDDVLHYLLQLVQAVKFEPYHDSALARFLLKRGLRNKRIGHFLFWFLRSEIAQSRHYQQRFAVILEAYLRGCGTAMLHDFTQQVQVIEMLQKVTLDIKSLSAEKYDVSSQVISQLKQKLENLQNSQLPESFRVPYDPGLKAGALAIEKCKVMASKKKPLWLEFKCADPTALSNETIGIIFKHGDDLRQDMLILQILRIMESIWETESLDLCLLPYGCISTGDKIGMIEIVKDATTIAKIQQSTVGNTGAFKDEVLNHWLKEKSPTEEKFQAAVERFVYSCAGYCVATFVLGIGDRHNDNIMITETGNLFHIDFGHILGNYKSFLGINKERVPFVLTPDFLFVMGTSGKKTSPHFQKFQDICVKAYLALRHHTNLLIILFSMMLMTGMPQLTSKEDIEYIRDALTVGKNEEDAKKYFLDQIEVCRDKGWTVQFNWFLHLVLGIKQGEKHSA
How it was run: as §1

kinase enzymes [3] = biological target: T4, kinase enzymes (Homo sapiens, UniProt P42345); assay: as above; settings: MTOR_h
T4 construct: purchased DiscoveRx Corporation, San Diego (contract service, KINOMEscan)
How it was run: as §1

kinase enzymes [4] = biological target: T5, kinase enzymes (Homo sapiens, UniProt P42336); assay: as above; settings: PIK3Cα_h
T5 construct: purchased DiscoveRx Corporation, San Diego (contract service, KINOMEscan)
T5 sequence (P42336 whole entry): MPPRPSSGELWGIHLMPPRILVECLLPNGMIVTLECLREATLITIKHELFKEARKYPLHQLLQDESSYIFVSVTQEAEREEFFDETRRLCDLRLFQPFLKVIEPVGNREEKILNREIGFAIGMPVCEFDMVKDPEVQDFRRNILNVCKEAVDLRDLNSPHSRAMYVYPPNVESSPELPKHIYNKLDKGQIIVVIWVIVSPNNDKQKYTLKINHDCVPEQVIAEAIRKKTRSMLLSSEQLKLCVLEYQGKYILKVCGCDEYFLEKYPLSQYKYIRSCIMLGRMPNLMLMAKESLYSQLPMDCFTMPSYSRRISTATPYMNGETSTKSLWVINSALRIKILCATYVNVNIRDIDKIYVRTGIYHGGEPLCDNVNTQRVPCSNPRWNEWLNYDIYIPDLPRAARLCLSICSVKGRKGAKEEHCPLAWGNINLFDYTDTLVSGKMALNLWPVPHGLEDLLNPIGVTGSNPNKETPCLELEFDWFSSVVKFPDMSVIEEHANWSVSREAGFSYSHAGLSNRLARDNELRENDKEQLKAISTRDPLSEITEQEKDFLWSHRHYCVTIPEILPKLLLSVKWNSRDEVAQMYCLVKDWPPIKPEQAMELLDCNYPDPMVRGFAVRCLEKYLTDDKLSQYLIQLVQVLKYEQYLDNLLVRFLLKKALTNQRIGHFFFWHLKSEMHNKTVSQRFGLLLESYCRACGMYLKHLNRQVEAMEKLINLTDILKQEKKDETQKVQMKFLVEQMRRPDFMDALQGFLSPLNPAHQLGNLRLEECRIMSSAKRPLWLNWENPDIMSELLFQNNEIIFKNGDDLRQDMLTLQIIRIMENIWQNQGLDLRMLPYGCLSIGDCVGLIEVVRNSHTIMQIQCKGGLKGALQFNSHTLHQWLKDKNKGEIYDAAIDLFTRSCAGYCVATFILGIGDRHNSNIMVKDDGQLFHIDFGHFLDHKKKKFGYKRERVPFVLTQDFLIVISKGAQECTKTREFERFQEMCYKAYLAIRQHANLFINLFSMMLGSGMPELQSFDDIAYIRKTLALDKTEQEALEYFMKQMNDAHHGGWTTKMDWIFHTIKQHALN
How it was run: as §1

[5] = tested on: Akt phosphorylated at Thr308 in PC-3 cells; assay: Cellular assay: phosphorylation of Akt at Thr308 in PC-3 cells (MSD ELISA); type: cell-based; settings: PC-3 cells, 60 min compound incubation, MSD ELISA, read-out: IC50 pAkt_Thr308
How it was run: as §2

T1 sequence (P42338 whole entry): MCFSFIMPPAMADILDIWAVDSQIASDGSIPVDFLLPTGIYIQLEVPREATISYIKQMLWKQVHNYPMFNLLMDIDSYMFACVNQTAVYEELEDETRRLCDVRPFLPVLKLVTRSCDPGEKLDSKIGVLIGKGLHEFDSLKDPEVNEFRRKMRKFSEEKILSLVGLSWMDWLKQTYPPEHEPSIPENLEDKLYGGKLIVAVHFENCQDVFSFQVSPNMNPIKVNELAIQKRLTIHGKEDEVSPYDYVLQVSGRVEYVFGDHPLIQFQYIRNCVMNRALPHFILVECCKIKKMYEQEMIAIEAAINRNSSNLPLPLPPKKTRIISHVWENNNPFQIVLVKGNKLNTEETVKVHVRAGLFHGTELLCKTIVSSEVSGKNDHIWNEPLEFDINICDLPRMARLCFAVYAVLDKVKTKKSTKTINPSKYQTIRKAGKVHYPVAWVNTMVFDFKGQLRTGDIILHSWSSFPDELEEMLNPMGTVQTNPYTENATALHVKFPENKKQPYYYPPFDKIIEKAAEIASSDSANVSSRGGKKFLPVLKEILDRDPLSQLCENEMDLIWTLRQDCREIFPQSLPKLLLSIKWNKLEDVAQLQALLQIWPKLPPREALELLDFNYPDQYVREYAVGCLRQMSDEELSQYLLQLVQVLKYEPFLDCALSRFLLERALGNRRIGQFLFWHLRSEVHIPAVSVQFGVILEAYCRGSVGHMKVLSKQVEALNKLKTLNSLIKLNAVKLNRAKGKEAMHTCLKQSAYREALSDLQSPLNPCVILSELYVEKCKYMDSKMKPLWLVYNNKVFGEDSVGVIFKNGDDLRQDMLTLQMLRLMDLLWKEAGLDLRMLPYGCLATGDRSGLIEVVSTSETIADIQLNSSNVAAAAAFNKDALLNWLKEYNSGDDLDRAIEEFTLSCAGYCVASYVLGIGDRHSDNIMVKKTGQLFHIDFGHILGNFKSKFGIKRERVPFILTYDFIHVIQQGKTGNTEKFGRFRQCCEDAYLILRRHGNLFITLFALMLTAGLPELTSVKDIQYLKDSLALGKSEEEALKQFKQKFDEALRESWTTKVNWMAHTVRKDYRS

CN(C)C(=O)c1cc(CNc2cc(F)cc(F)c2)c2nc(N3CCOCC3)cnc2c1 [Compound 332]
Kd (PI3Kβ): 0.015 µM
Kd (PI3Kδ): 4.27 µM
IC50 ([1]; Homo sapiens, PC-3, 1 h): ~0.316 µM
Kd (kinase enzymes [2]): 21.4 µM
Kd (kinase enzymes [3]): > 30.2 µM
Kd (kinase enzymes [4]): 2.95 µM
IC50 ([5]; Homo sapiens, PC-3, 1 h): 0.112 µM

CC(Nc1cc(F)cc(F)c1)c1cc(C(=O)N2CCNC(C(F)(F)F)C2)cc2ncc(N3CCOCC3)nc12 (single isomer, unassigned) [Compound 237c]
Kd (PI3Kβ): 0.004 µM
Kd (PI3Kδ): 0.234 µM
IC50 [1]: 0.026 µM
Kd (kinase enzymes [2]): 5.49 µM
Kd (kinase enzymes [3]): > 30.2 µM
Kd (kinase enzymes [4]): 0.372 µM
IC50 [5]: 0.011 µM

CC(C)NCCNC(=O)c1cc(C(C)Nc2ccc(Cl)c(F)c2)c2nc(N3CCOCC3)cnc2c1 (single isomer, unassigned) [Compound 312b]
Kd (PI3Kβ): 0.026 µM
Kd (PI3Kδ): 1.86 µM
IC50 [1]: > 0.513 µM
Kd (kinase enzymes [2]): 28.2 µM
Kd (kinase enzymes [3]): 20 µM
Kd (kinase enzymes [4]): 5.13 µM
IC50 [5]: > 0.513 µM

CC(c1cc(C(=O)N(C)C)cc2ncc(N3CCOCC3)nc12)N(C)c1cccc(Cl)c1 (stereo not drawn) [Compound 141]
Kd (PI3Kβ): 0.006 µM
Kd (PI3Kδ): 0.776 µM
IC50 ([1]; Homo sapiens, PC-3, 1 h): 0.182 µM
Kd (kinase enzymes [2]): 8.13 µM
Kd (kinase enzymes [3]): > 30.2 µM
Kd (kinase enzymes [4]): 6.61 µM
IC50 ([5]; Homo sapiens, PC-3, 1 h): 0.102 µM

CC(Nc1cc(F)cc(F)c1)c1cc(CN2C[C@@H](C)O[C@@H](C)C2)cc2ncc(N3CCOCC3)nc12 (single isomer, unassigned) [Compound 208]
Kd (PI3Kβ): 0.008 µM
Kd (PI3Kδ): 1.41 µM
IC50 [1]: 0.186 µM
Kd (kinase enzymes [2]): > 30.2 µM
Kd (kinase enzymes [3]): > 30.2 µM
Kd (kinase enzymes [4]): 3.47 µM
IC50 [5]: 0.083 µM

CC(Oc1ccc(Cl)c(F)c1)c1cc(C(=O)N(C)CCN(C)C)cc2ncc(N3CCOCC3)nc12 (single isomer, unassigned) [Compound 313b]
Kd (PI3Kβ): 0.302 µM
Kd (PI3Kδ): 5.49 µM
IC50 [1]: > 0.513 µM
Kd (kinase enzymes [2]): > 30.2 µM
Kd (kinase enzymes [3]): > 30.2 µM
Kd (kinase enzymes [4]): 14.5 µM
IC50 [5]: > 0.513 µM

CC(Nc1cc(F)cc(F)c1)c1cc(C(=O)NCCO)cc2ncc(N3CCOCC3)nc12 (single isomer, unassigned) [Compound 189]
Kd (PI3Kβ): 2.51 µM
Kd (PI3Kδ): 28.2 µM
IC50 [1]: > 0.513 µM
Kd (kinase enzymes [2]): 4.47 µM
Kd (kinase enzymes [3]): > 30.2 µM
Kd (kinase enzymes [4]): > 30.2 µM
IC50 [5]: > 0.513 µM

CC(Oc1cccc(F)c1)c1cc(C(=O)O)cc2ncc(N3CCOCC3)nc12 (single isomer, unassigned) [Compound 257c]
Kd (PI3Kβ): 0.603 µM
Kd (PI3Kδ): 3.02 µM
IC50 [1]: > 0.513 µM
Kd (kinase enzymes [2]): 3.16 µM
Kd (kinase enzymes [3]): 1.66 µM
Kd (kinase enzymes [4]): 1.7 µM
IC50 [5]: > 0.513 µM

CN[C@H]1CCN(C(=O)c2cc(C(C)Nc3ccc(F)c(F)c3)c3nc(N4CCOCC4)cnc3c2)C1 (single isomer, unassigned) [Compound 365a]
Kd (PI3Kβ): 0.001 µM
Kd (PI3Kδ): 0.204 µM
IC50 ([1]; Homo sapiens, PC-3, 1 h): 0.052 µM
Kd (kinase enzymes [2]): 10.2 µM
Kd (kinase enzymes [3]): > 30.2 µM
Kd (kinase enzymes [4]): 5.25 µM
IC50 ([5]; Homo sapiens, PC-3, 1 h): 0.035 µM

CC(C)NCCNC(=O)c1cc(C(C)Nc2ccc(F)c(F)c2)c2nc(N3CCOCC3)cnc2c1 (single isomer, unassigned) [Compound 364b]
Kd (PI3Kβ): 0.372 µM
Kd (PI3Kδ): 7.76 µM
IC50 [1]: > 0.513 µM
Kd (kinase enzymes [2]): 8.13 µM
Kd (kinase enzymes [3]): > 30.2 µM
Kd (kinase enzymes [4]): 7.08 µM
IC50 [5]: > 0.513 µM

CC(Oc1cccc(F)c1)c1cc(C(=O)N(C)C)cc2ncc(N3CCOCC3)nc12 (single isomer, unassigned) [Compound 339b]
Kd (PI3Kβ): 0.316 µM
Kd (PI3Kδ): 1.95 µM
IC50 [1]: > 0.513 µM
Kd (kinase enzymes [2]): 2.19 µM
Kd (kinase enzymes [3]): 6.46 µM
Kd (kinase enzymes [4]): 0.759 µM
IC50 [5]: > 0.513 µM

CC(Oc1cc(F)cc(F)c1)c1cc(C(=O)N(C)CCO)cc2ncc(N3CCOCC3)nc12 (single isomer, unassigned) [Compound 60]
Kd (PI3Kβ): 0.49 µM
Kd (PI3Kδ): 15.5 µM
IC50 [1]: > 0.513 µM
Kd (kinase enzymes [2]): > 30.2 µM
Kd (kinase enzymes [3]): > 30.2 µM
Kd (kinase enzymes [4]): 22.9 µM
IC50 [5]: > 0.513 µM

CC(Oc1cc(F)cc(F)c1)c1cc(C(=O)N(C)C)cc2ncc(N3CCOCC3)nc12 (single isomer, unassigned) [Compound 6]
Kd (PI3Kβ): 1.89 µM
Kd (PI3Kδ): 16.9 µM
IC50 [1]: > 0.513 µM
Kd (kinase enzymes [2]): > 30.2 µM
Kd (kinase enzymes [3]): > 30.2 µM
Kd (kinase enzymes [4]): 26 µM
IC50 [5]: > 0.513 µM

CC(C)N1CCCN(C(=O)c2cc(NCc3cc(F)cc(F)c3)c3nc(N4CCOCC4)cnc3c2)CC1 [Compound 360]
Kd (PI3Kβ): 0.042 µM
Kd (PI3Kδ): 11.7 µM
IC50 ([1]; Homo sapiens, PC-3, 1 h): > 0.513 µM
Kd (kinase enzymes [2]): 26.9 µM
Kd (kinase enzymes [3]): > 30.2 µM
Kd (kinase enzymes [4]): 6.76 µM
IC50 ([5]; Homo sapiens, PC-3, 1 h): > 0.513 µM

CC(Nc1cc(F)cc(F)c1)c1cc(C(C)(C)O)cc2ncc(N3CCOCC3)nc12 (stereo not drawn) [Compound 341]
Kd (PI3Kβ): 0.017 µM
Kd (PI3Kδ): 1.48 µM
IC50 ([1]; Homo sapiens, PC-3, 1 h): 0.046 µM
Kd (kinase enzymes [2]): 8.13 µM
Kd (kinase enzymes [3]): 21.4 µM
Kd (kinase enzymes [4]): 3.39 µM
IC50 ([5]; Homo sapiens, PC-3, 1 h): 0.026 µM

Fc1cc(F)cc(N2CCCC2c2cncc3ncc(N4CCOCC4)nc23)c1 (stereo not drawn) [Compound 23]
Kd (PI3Kβ): 0.001 µM
Kd (PI3Kδ): 0.331 µM
IC50 ([1]; Homo sapiens, PC-3, 1 h): ~0.068 µM
Kd (kinase enzymes [2]): 0.724 µM
Kd (kinase enzymes [3]): 15.1 µM
Kd (kinase enzymes [4]): 0.324 µM
IC50 ([5]; Homo sapiens, PC-3, 1 h): 0.042 µM

CNCC1CCN(C(=O)c2cc(C(C)Nc3cc(F)cc(F)c3)c3nc(N4CCOCC4)cnc3c2)CC1 (stereo not drawn) [Compound 176]
Kd (PI3Kβ): 0.001 µM
Kd (PI3Kδ): 0.102 µM
IC50 ([1]; Homo sapiens, PC-3, 1 h): 0.016 µM
Kd (kinase enzymes [2]): 3.47 µM
Kd (kinase enzymes [3]): > 30.2 µM
Kd (kinase enzymes [4]): 2 µM
IC50 ([5]; Homo sapiens, PC-3, 1 h): 0.015 µM

CC(Oc1cccc(F)c1)c1cc(C(=O)N(C)C)cc2ncc(N3CCOCC3)nc12 (single isomer, unassigned) [Compound 339a]
Kd (PI3Kβ): 0.112 µM
Kd (PI3Kδ): 2.09 µM
IC50 [1]: > 0.513 µM
Kd (kinase enzymes [2]): 10.7 µM
Kd (kinase enzymes [3]): > 30.2 µM
Kd (kinase enzymes [4]): 4.57 µM
IC50 [5]: 0.407 µM
